Reference: article PMC4964431, “Discovery of a Potential HER2 Inhibitor from Natural Products for the Treatment of HER2-Positive Breast Cancer” (International Journal of Molecular Sciences, 2016)
“Also recorded” adds a separate entry of the source.

Legend:
HER2 kinase = biological target: T1, HER2 kinase (Homo sapiens, UniProt P04626); assay: In vitro HER2 kinase inhibition assay (Invitrogen kit PV3366); assay type: biochemical; conditions: HER2 0.20 μg/mL, mean ± SD, read-out: Enzymatic IC50
T1 construct: purchased Invitrogen PV3366
T1 sequence (P04626 23-1255): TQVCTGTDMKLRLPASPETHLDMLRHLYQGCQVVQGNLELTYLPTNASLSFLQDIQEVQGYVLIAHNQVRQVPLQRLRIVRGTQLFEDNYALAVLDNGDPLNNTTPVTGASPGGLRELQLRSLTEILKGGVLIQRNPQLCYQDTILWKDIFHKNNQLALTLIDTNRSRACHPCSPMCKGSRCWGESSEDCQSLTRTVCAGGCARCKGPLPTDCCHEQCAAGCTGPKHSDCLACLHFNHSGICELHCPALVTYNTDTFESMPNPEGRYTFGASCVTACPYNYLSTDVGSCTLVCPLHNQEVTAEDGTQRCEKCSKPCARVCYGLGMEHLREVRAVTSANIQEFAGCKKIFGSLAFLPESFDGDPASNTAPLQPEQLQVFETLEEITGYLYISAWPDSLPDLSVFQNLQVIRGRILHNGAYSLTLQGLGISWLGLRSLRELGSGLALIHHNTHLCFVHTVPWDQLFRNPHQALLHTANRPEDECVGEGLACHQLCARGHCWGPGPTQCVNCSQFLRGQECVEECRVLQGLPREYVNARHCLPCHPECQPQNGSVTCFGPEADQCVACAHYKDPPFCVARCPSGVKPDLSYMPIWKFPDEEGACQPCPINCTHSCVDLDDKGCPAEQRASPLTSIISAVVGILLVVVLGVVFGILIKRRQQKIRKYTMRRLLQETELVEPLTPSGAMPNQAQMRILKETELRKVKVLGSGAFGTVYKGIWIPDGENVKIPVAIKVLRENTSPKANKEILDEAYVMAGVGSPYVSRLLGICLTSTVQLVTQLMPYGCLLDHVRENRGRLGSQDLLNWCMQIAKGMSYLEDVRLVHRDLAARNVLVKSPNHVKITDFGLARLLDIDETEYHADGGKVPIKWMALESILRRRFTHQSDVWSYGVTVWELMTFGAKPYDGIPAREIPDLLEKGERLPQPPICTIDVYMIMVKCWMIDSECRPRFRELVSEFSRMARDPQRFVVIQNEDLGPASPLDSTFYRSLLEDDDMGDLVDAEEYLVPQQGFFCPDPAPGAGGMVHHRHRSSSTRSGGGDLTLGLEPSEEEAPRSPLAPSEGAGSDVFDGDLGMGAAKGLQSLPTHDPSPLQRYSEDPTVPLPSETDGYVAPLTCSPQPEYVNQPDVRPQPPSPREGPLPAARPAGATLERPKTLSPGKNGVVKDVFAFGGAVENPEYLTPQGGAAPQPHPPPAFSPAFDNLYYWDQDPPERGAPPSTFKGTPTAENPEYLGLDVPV
Experimental: The compounds were tested for HER2 kinase inhibition abilities using an HER2 assay kit (Invitrogen, Carlsbad, CA, USA, PV3366). The kinase kit was obtained from Invitrogen; all compounds were purchased from Thermo Electron Corporation (Walthan, MA, USA). The concentrations of HER2 were set as 0.20 μg/mL. The concentration of selected compounds was set as six gradients (0.0001–10 μM) in DMSO. Firstly, 2.5 μL of ATP solution and 2.5 μL of compound solution was added to the 5.0 μL substrate peptide. Then, the mixture solution on the plate was incubated for 1 h at 25 °C. Next, 5 μL of development solution was added to the well, and the plate was incubated for 1 h at 25 °C. To terminate the reaction, 5 μL of stop reagent was added to plate. The Infinite M100 Pro multi-label reader (Tecan, Männedorf, Switzerland) was used to measure the activity. Graph Pad Prism 5.0 (Graph Pad Software, San Diego, CA, USA) was used to calculate the IC50 values.

[1] = system: HER2-overexpressing BT474 cell line; assay: Cell proliferation inhibition, CCK-8; assay type: cell-based; conditions: Homo sapiens, BT-474; BT474, 48 h, CCK-8, mean ± SD
Experimental: (§1) All cells were obtained from ATCC (Manassas, VA, USA). The HER2-overexpression SKBR3 cell line and BT474 cell line were cultured in RPMI (Roswell Park Memorial Institute medium) 1640 medium and supplemented with 10% FBS (fetal bovine serum). In addition, 100 U/mL of Penicillin and Streptomycin were added. The cell cultures were maintained at 37 °C in a humidified atmosphere of 5% CO2. Cells were seeded at density 2 × 10^4/mL in 96-well plates per well. The medium was removed after seeding 24 h. The compounds were dissolved in DMSO (dimethyl sulfoxide) and diluted with medium to different concentrations. Then, 20 µL of the selected compounds solution were added in 96-well plates, and incubation continued for 48 h at 37 °C in a humidified atmosphere of 5% CO2. After that, the medium was removed, 90 µL of fresh medium and 10 μL of CCK-8 [54] (Dojindo Molecular Technologies Inc., Kumamoto, Japan) was added to each well and incubated for additional half hour. The activity was measured by microplate reader. Graph Pad Prism 5.0 was used to calculated the IC50 values. The normal breast cells (Hs578Bst) were cultured the same as SKBR3 cells. Cell viability was measured by the CCK-8 assay as previously described.

[2] = system: HER2-overexpressing SKBR3 cell line; assay: Cell proliferation inhibition, CCK-8; assay type: cell-based; conditions: Homo sapiens, SK-BR-3; SKBR3, 48 h, CCK-8, mean ± SD
Experimental: as §1

[3] = system: normal breast cells (Hs578Bst); assay: Normal breast cell viability, CCK-8; assay type: cell-based; conditions: different concentrations, 24 h of treatment
Experimental: Three compounds (cell inhibition IC50 values < 50 μM) were further tested on the normal breast cell (Hs578Bst) to study the effect on cell proliferation and thus verify the toxicity of normal cells. CCK-8 (Cell Counting kit-8) assays were utilized to determine the effects of different concentrations of three compounds on normal breast cell viability after 24 h of treatment.
as §1

Row | SMILES | IC50 (HER2 kinase) [µM] | IC50 [1] [µM] | IC50 [2] [µM] | cytotoxicity against normal breast cells (cell viability) [3] | cytotoxicity against normal breast cells (cell viability) ([3]; listed as ZINC31178641)
1 | CC(C)=CCC/C(C)=C/Cc1c(O)cc2c(c1O)C(=O)[C@H](O)[C@@H](c1ccc(O)cc1)O2 [ZINC13378641, (2R,3R)-6-[(2E)-3,7-dimethylocta-2,6-dienyl]-3,5,7-trihydroxy-2-(4-hydroxyphenyl)chroman-4-one] | 3.71 ± 0.03 | 18.6 ± 2.06 | 26.5 ± 1.62 | little cytotoxicity | low cytotoxicity
2 | CC(C)=CC[C@@H](O)/C(C)=C/Cc1cc(C(=O)O)cc(C/C=C(\C)CO)c1O [ZINC31166919, 4-hydroxy-3-[(2E,4R)-4-hydroxy-3,7-dimethyl-octa-2,6-dienyl]-5-[(E)-4-hydroxy-3-methyl-but-2-enyl]be] | 2.63 ± 0.03 | 6.78 ± 0.68 | 8.61 ± 0.45 | slightly enhanced cytotoxicity with increase of concentration | 
3 | O=C(O)c1cccc(C(=O)CC[C@@H]2O[C@@H](n3cnc4c(=O)[nH]cnc43)[C@@H](O)[C@H]2O)c1 [ZINC35456515, 3-[3-[(2S,3R,4S,5R)-3,4-dihydroxy-5-(6-hydroxypurin-9-yl)tetrahydrofuran-2-yl]propanoyl]benzoic] | > 10 | > 50 | > 50 |  | 
4 | C/C(=C\Cc1cc(C(=O)O)cc(CC[C@H](C)C(=O)/C=C/C(C)(C)O)c1O)CO [ZINC49181256, 4-hydroxy-3-[(E,3S)-7-hydroxy-3,7-dimethyl-4-oxo-oct-5-enyl]-5-[(E)-4-hydroxy-3-methyl-but-2-enyl]be] | 9.18 ± 0.01 | > 50 | > 50 |  | 

These reach a lower IC50 [1]. Values come first.

Row | IC50 (HER2 kinase) [µM] | IC50 [1] [µM] | IC50 [2] [µM] | SMILES | cytotoxicity against normal breast cells (cell viability) [3] | cytotoxicity against normal breast cells (cell viability) ([3]; listed as ZINC31178641)
5 | 0.18 ± 0.002 | 4.11 ± 0.95 | 1.22 ± 0.05 | CC(C)=CCC/C(C)=C/Cc1c(O)cc2c(c1O)C(=O)CC(c1ccc(O)c(O)c1)O2 (stereo not drawn) [ZINC15122021, 2-(3,4-dihydroxyphenyl)-6-[(2E)-3,7-dimethylocta-2,6-dienyl]-5,7-dihydroxy-2,3-dihydrochromen-4-one] | little cytotoxicity; also recorded: low cytotoxicity | 
6 |  | 0.45 ± 0.03 | 0.38 ± 0.02 | CS(=O)(=O)CCNCc1ccc(-c2ccc3ncnc(Nc4ccc(OCc5cccc(F)c5)c(Cl)c4)c3c2)o1 [lapatinib, Lapatinib, reference compound] |  | 
